Results taken from patent publication US8952024B2, “Herbicidal pyrimidone derivatives” (E I du Pont de Nemours and Company, priority 2009, dated 2015).

What was measured:
Experiment in all cases: Test B pre-/postemergence plant response
Assay type in all cases: in vivo
[1] = test system: Italian ryegrass (Lolium multiflorum); conditions: for Ryegrass, Italian plant response rating (0 to 100 scale): postemergence, 0 is no effect, 100 is complete control, 13 to 15 days
In short: (§1)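 Plants treated either at seeding (loam/sand soil) or postemergence at 2 to 18 cm height, using a surfactant-containing non-phytotoxic solvent formulation. Evaluation was visual after 13 to 15 days, 0 to 100 scale relative to controls.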

[2] = test system: blackgrass (Alopecurus myosuroides); conditions: for Blackgrass plant response rating (0 to 100 scale): 0 is no effect, 13 to 15 days
In short: as §1

[3] = test system: cocklebur (Xanthium strumarium); conditions: for Cocklebur plant response rating (0 to 100 scale): 0 is no effect, 13 to 15 days
In short: as §1

corn (Zea mays) = conditions: for Corn plant response rating (0 to 100 scale): 62 g ai/ha, 0 is no effect, 13 to 15 days
In short: as §1

[4] = test system: giant foxtail (Setaria faberii); conditions: for Foxtail, Giant plant response rating (0 to 100 scale): 0 is no effect, 13 to 15 days
In short: as §1

[5] = test system: goosegrass (Eleusine indica); conditions: for Goosegrass plant response rating (0 to 100 scale): 0 is no effect, 13 to 15 days
In short: as §1

[6] = test system: green foxtail (Setaria viridis); conditions: for Foxtail, Green plant response rating (0 to 100 scale): 0 is no effect, 13 to 15 days
In short: as §1

[7] = test system: johnsongrass (Sorghum halepense); conditions: for Johnsongrass plant response rating (0 to 100 scale): 0 is no effect, 13 to 15 days
In short: as §1

kochia (Kochia scoparia) = conditions: for Kochia plant response rating (0 to 100 scale): 0 is no effect, 13 to 15 days
In short: as §1

[8] = test system: large crabgrass (Digitaria sanguinalis); conditions: for Crabgrass, Large plant response rating (0 to 100 scale): 0 is no effect, 13 to 15 days
In short: as §1

[9] = test system: morningglory (Ipomoea coccinea); conditions: for Morningglory plant response rating (0 to 100 scale): 0 is no effect, 13 to 15 days
In short: as §1

[10] = test system: ragweed (common ragweed, Ambrosia elatior); conditions: for Ragweed plant response rating (0 to 100 scale): postemergence, 0 is no effect, 100 is complete control, 13 to 15 days
In short: as §1

soybean (Glycine max) = conditions: for Soybean plant response rating (0 to 100 scale): postemergence, 0 is no effect, 100 is complete control, 13 to 15 days
In short: as §1

[11] = test system: velvetleaf (Abutilon theophrasti); conditions: for Velvetleaf plant response rating (0 to 100 scale): postemergence, 0 is no effect, 100 is complete control, 13 to 15 days
In short: as §1

[12] = Postemergence, 125 g ai/ha, scale 0 to 100 (0 no effect, 100 complete control)
[13] = Postemergence, 250 g ai/ha, scale 0 to 100 (0 no effect, 100 complete control)
[14] = Preemergence, 31 g ai/ha, scale 0 to 100 (0 no effect, 100 complete control)
[15] = Preemergence, 62 g ai/ha, scale 0 to 100 (0 no effect, 100 complete control)
[16] = Preemergence, 125 g ai/ha, scale 0 to 100, 0 no effect, 100 complete control
[17] = Preemergence, 250 g ai/ha, 0 to 100 scale
[18] = 31 g ai/ha, postemergence, scale 0 to 100, 0 is no effect, 100 is complete control
[19] = 62 g ai/ha, postemergence, 100 is complete control
[20] = postemergence, 100 is complete control

COCCCn1c(-c2cc(F)cc(F)c2)ncc(C(=O)C2=C(O)CCCC2=O)c1=O [Compound 120]
Ryegrass, Italian plant response rating (0 to 100 scale) ([1]; 62 g ai/ha): 40 | Plant response rating, Ryegrass, Italian [1, 12]: 60 | Plant response rating, Ryegrass, Italian [1, 13]: 80 | Plant response rating, Ryegrass, Italian [1, 14]: 100 | Plant response rating, Ryegrass, Italian [1, 15]: 100 | Plant response rating, Ryegrass, Italian [1, 16]: 100 | Ryegrass, Italian plant response rating [1, 17]: 100 | Plant response rating, Blackgrass [2, 18]: 30 | Blackgrass plant response rating (0 to 100 scale) [2, 19]: 30 | Plant response rating, Blackgrass [2, 12]: 60 | Plant response rating, Blackgrass [2, 13]: 60 | Plant response rating, Blackgrass [2, 14]: 5 | Plant response rating, Blackgrass [2, 15]: 50 | Plant response rating, Blackgrass [2, 16]: 50 | Blackgrass plant response rating [2, 17]: 50 | Plant response rating, Cocklebur [3, 18]: 10 | Cocklebur plant response rating (0 to 100 scale) [3, 19]: 15 | Plant response rating, Cocklebur [3, 12]: 25 | Plant response rating, Cocklebur [3, 13]: 80 | Plant response rating, Cocklebur [3, 14]: 0 | Plant response rating, Cocklebur [3, 15]: 35 | Plant response rating, Cocklebur [3, 16]: 60 | Cocklebur plant response rating [3, 17]: 98 | Plant response rating, Corn (corn (Zea mays); [18]): 15 | Corn plant response rating (0 to 100 scale) (corn (Zea mays); [20]): 20 | Plant response rating, Corn (corn (Zea mays); [12]): 50 | Plant response rating, Corn (corn (Zea mays); [13]): 75 | Plant response rating, Corn (corn (Zea mays); [14]): 0 | Plant response rating, Corn (corn (Zea mays); [16]): 25 | Corn plant response rating (corn (Zea mays); [17]): 55 | Plant response rating, Foxtail, Giant [4, 18]: 75 | Foxtail, Giant plant response rating (0 to 100 scale) [4, 19]: 80 | Plant response rating, Foxtail, Giant [4, 12]: 85 | Plant response rating, Foxtail, Giant [4, 13]: 98 | Plant response rating, Foxtail, Giant [4, 14]: 75 | Plant response rating, Foxtail, Giant [4, 15]: 98 | Plant response rating, Foxtail, Giant [4, 16]: 98 | Foxtail, Giant plant response rating [4, 17]: 100 | Plant response rating, Goosegrass [5, 18]: 75 | Goosegrass plant response rating (0 to 100 scale) [5, 19]: 80 | Plant response rating, Goosegrass [5, 12]: 85 | Plant response rating, Goosegrass [5, 13]: 98 | Plant response rating, Goosegrass [5, 14]: 100 | Plant response rating, Goosegrass [5, 15]: 100 | Plant response rating, Goosegrass [5, 16]: 100 | Goosegrass plant response rating [5, 17]: 100 | Plant response rating, Foxtail, Green [6, 18]: 90 | Foxtail, Green plant response rating (0 to 100 scale) [6, 19]: 95 | Plant response rating, Foxtail, Green [6, 12]: 95 | Plant response rating, Foxtail, Green [6, 13]: 100 | Plant response rating, Foxtail, Green [6, 14]: 95 | Plant response rating, Foxtail, Green [6, 15]: 98 | Plant response rating, Foxtail, Green [6, 16]: 100 | Foxtail, Green plant response rating [6, 17]: 100 | Plant response rating, Johnsongrass [7, 18]: 15 | Johnsongrass plant response rating (0 to 100 scale) [7, 19]: 25 | Plant response rating, Johnsongrass [7, 12]: 75 | Plant response rating, Johnsongrass [7, 13]: 80 | Plant response rating, Johnsongrass [7, 14]: 35 | Plant response rating, Johnsongrass [7, 15]: 70 | Plant response rating, Johnsongrass [7, 16]: 80 | Johnsongrass plant response rating [7, 17]: 90 | Plant response rating, Kochia (kochia (Kochia scoparia); [18]): 10 | Kochia plant response rating (0 to 100 scale) (kochia (Kochia scoparia); [19]): 40 | Plant response rating, Kochia (kochia (Kochia scoparia); [12]): 80 | Plant response rating, Kochia (kochia (Kochia scoparia); [13]): 98 | Plant response rating, Kochia (kochia (Kochia scoparia); [14]): 0 | Plant response rating, Kochia (kochia (Kochia scoparia); [15]): 20 | Plant response rating, Kochia (kochia (Kochia scoparia); [16]): 50 | Kochia plant response rating (kochia (Kochia scoparia); [17]): 75 | Plant response rating, Crabgrass, Large [8, 18]: 80 | Crabgrass, Large plant response rating (0 to 100 scale) [8, 19]: 85 | Plant response rating, Crabgrass, Large [8, 12]: 95 | Plant response rating, Crabgrass, Large [8, 13]: 98 | Plant response rating, Crabgrass, Large [8, 14]: 98 | Plant response rating, Crabgrass, Large [8, 15]: 100 | Plant response rating, Crabgrass, Large [8, 16]: 100 | Crabgrass, Large plant response rating [8, 17]: 100 | Plant response rating, Morningglory [9, 18]: 15 | Morningglory plant response rating (0 to 100 scale) [9, 19]: 50 | Plant response rating, Morningglory [9, 12]: 80 | Plant response rating, Morningglory [9, 13]: 90 | Plant response rating, Morningglory [9, 14]: 0 | Plant response rating, Morningglory [9, 15]: 90 | Plant response rating, Morningglory [9, 16]: 90 | Morningglory plant response rating [9, 17]: 100 | Ragweed plant response rating (0 to 100 scale) ([10]; 62 g ai/ha): 75 | Plant response rating, Ragweed [10, 12]: 75 | Plant response rating, Ragweed [10, 13]: 80 | Plant response rating, Ragweed [10, 14]: 80 | Plant response rating, Ragweed [10, 15]: 80 | Plant response rating, Ragweed [10, 16]: 95 | Ragweed plant response rating [10, 17]: 95 | Soybean plant response rating (0 to 100 scale) (soybean (Glycine max); 62 g ai/ha): 80 | Plant response rating, Soybean (soybean (Glycine max); [12]): 95 | Plant response rating, Soybean (soybean (Glycine max); [13]): 98 | Plant response rating, Soybean (soybean (Glycine max); [14]): 15 | Plant response rating, Soybean (soybean (Glycine max); [15]): 70 | Plant response rating, Soybean (soybean (Glycine max); [16]): 80 | Soybean plant response rating (soybean (Glycine max); [17]): 80 | Velvetleaf plant response rating (0 to 100 scale) ([11]; 62 g ai/ha): 95 | Plant response rating, Velvetleaf [11, 12]: 98 | Plant response rating, Velvetleaf [11, 13]: 100 | Plant response rating, Velvetleaf [11, 14]: 80 | Plant response rating, Velvetleaf [11, 15]: 100 | Plant response rating, Velvetleaf [11, 16]: 100 | Velvetleaf plant response rating [11, 17]: 100

CCCCn1c(-c2cc(F)cc(F)c2)ncc(C(=O)C2=C(O)CCCC2=O)c1=O [Compound 121]
Ryegrass, Italian plant response rating (0 to 100 scale) ([1]; 62 g ai/ha): 40 | Plant response rating, Ryegrass, Italian [1, 12]: 70 | Plant response rating, Ryegrass, Italian [1, 13]: 75 | Plant response rating, Blackgrass [2, 18]: 5 | Blackgrass plant response rating (0 to 100 scale) [2, 19]: 40 | Plant response rating, Blackgrass [2, 12]: 40 | Plant response rating, Blackgrass [2, 13]: 60 | Plant response rating, Cocklebur [3, 18]: 40 | Cocklebur plant response rating (0 to 100 scale) [3, 19]: 45 | Plant response rating, Cocklebur [3, 12]: 85 | Plant response rating, Cocklebur [3, 13]: 100 | Plant response rating, Corn (corn (Zea mays); [18]): 25 | Corn plant response rating (0 to 100 scale) (corn (Zea mays); [20]): 55 | Plant response rating, Corn (corn (Zea mays); [12]): 55 | Plant response rating, Corn (corn (Zea mays); [13]): 85 | Plant response rating, Foxtail, Giant [4, 18]: 95 | Foxtail, Giant plant response rating (0 to 100 scale) [4, 19]: 98 | Plant response rating, Foxtail, Giant [4, 12]: 98 | Plant response rating, Foxtail, Giant [4, 13]: 98 | Plant response rating, Goosegrass [5, 18]: 95 | Goosegrass plant response rating (0 to 100 scale) [5, 19]: 98 | Plant response rating, Goosegrass [5, 12]: 98 | Plant response rating, Goosegrass [5, 13]: 98 | Plant response rating, Foxtail, Green [6, 18]: 80 | Foxtail, Green plant response rating (0 to 100 scale) [6, 19]: 90 | Plant response rating, Foxtail, Green [6, 12]: 100 | Plant response rating, Foxtail, Green [6, 13]: 100 | Plant response rating, Johnsongrass [7, 18]: 20 | Johnsongrass plant response rating (0 to 100 scale) [7, 19]: 70 | Plant response rating, Johnsongrass [7, 13]: 85 | Plant response rating, Kochia (kochia (Kochia scoparia); [18]): 95 | Kochia plant response rating (0 to 100 scale) (kochia (Kochia scoparia); [19]): 100 | Plant response rating, Kochia (kochia (Kochia scoparia); [13]): 100 | Plant response rating, Crabgrass, Large [8, 18]: 85 | Crabgrass, Large plant response rating (0 to 100 scale) [8, 19]: 90 | Plant response rating, Crabgrass, Large [8, 12]: 95 | Plant response rating, Crabgrass, Large [8, 13]: 98 | Plant response rating, Morningglory [9, 18]: 5 | Morningglory plant response rating (0 to 100 scale) [9, 19]: 20 | Plant response rating, Morningglory [9, 12]: 25 | Plant response rating, Morningglory [9, 13]: 45 | Ragweed plant response rating (0 to 100 scale) ([10]; 62 g ai/ha): 85 | Plant response rating, Ragweed [10, 12]: 90 | Plant response rating, Ragweed [10, 13]: 95 | Soybean plant response rating (0 to 100 scale) (soybean (Glycine max); 62 g ai/ha): 90 | Plant response rating, Soybean (soybean (Glycine max); [12]): 95 | Plant response rating, Soybean (soybean (Glycine max); [13]): 100 | Velvetleaf plant response rating (0 to 100 scale) ([11]; 62 g ai/ha): 98 | Plant response rating, Velvetleaf [11, 12]: 100 | Plant response rating, Velvetleaf [11, 13]: 100
